# Reference: US11326183B2, “VCN enhancer compositions and methods of using the same” (priority 2016, dated 2022)
# Entries after “also recorded” stand apart in the source; their conditions may differ.
# Key:
# hCD34+ cells [1] = test: VCN of pooled colonies after 14 day MethoCult culture, staurosporine and/or PGE2; format: cell-based, human; settings: for VCN compared to controls or other treatments, in words: mean VCN
# Description: (§1) Washed cells were resuspended in 200 μL SCGM and then transferred to 3 mL aliquots of cytokine-supplemented methylcellulose (for example, Methocult M4434 Classic). 1.1 mL was then transferred to parallel 35-mm tissue culture dishes using a blunt 16-gauge needle. Dishes were maintained in a standard humidified tissue culture incubator for 12-16 days and colonies were scored for size, morphology, and cellular composition. Individual colonies were then picked for subsequent VCN analysis or the contents of an entire 35-mm dish were pooled and then subject to VCN analysis.
# Cells were then transduced with LVV and cultured in the presence of protamine sulfate (standard), PGE2 or vehicle. After transduction, cells were washed and cultured in MethoCult for 14 days.
# After a 14 day MethoCult culture, pooled colonies were collected and analyzed for VCN. Mean VCN data is shown. […] FIG. 8.
# hCD34+ cells [2] = test: Vector copy number (VCN) analysis of hCD34+ cells transduced with LVV after staurosporine treatment; format: cell-based, human
# Description: (§2) Washed cells were resuspended in 2 mL Stem Cell Growth Medium (SCGM)+cytokines and transferred to a standard 12-well non-adherent tissue culture plate. Cells were maintained for an additional 6 days in a standard humidified tissue culture incubator (5% CO2) and then subjected to Vector Copy Number (VCN) analysis or single-cell nested PCR to determine transduction efficiency. Both VCN and the single-cell nested PCR assay were performed with qPCR using primers and probes specific to both the vector and an endogenous control gene. VCN was determined by dividing the amount of vector signal by the amount of the endogenous control gene. For the single-cell nested PCR assay, wells that contained a cell positive for the endogenous control gene and wells that contained a marked cell positive for both the vector and the endogenous control gene were enumerated, and the proportion of marked cells, or transduction efficiency, was calculated.
# as §1
# Cells transduced for 2 hours were then subjected to staining and flow analysis for the BLAM assay to quantify viral entry. […] FIG. 1A. […] FIGS. 1B and 1C.
# These seven cell lots had been prospectively classified as low, medium, or high transducing cell lots. A low transducing cell lot is defined here as having a mean VCN <0.5 in vehicle-treated transductions, a medium transducing cell lot is defined here as having a mean 0.5<VCN<1, and a high transducing cell lot is defined here as having a mean VCN>1. […] This property of leveling average VCN among cell lots with different transducibility could aid in controlling variability between cell lots and normalizing drug product VCNs.
# (§3) Following transduction, cells were washed and injected into busulfan-treated NSG mice. Aliquots of the drug product were retained for in vitro analysis. […] FIG. 4A. […] FIG. 4A. After 4 months in vivo, NSG mice were sacrificed and BM was collected and analyzed for VCN of the engrafted hCD34+ cells. There was an overall decrease in mean VCNs across all groups in vivo as compared to the drug product VCNs, indicating higher transduction of short-term progenitors rather than long-term stem cells. FIG. 4B.
# [3] = tested on: long-term NSG repopulating cells; test: VCN of bone marrow from NSG mice 4 months post-transplant of transduced hCD34+ cells; format: in vivo
# Description: (§4) HSCs transduced with lentivirus were transplanted into NOD/SCID Gamma (NSG) mice to assess the effect of candidate compounds on viral transduction of human long-term hematopoietic stem cells. Transduced cells were washed and resuspended in phosphate-buffered saline (PBS) and transplanted into the tail vein of sub-myeloablated adult NSG mice, with minimal residual toxicity. Mice were housed in a pathogen-free environment per standard IACUC animal care guidelines. At 4 months post-transplant bone marrow (BM) was harvested from both femurs and analyzed for both VCN and engraftment of human cells by staining with an anti-hCD45 antibody (BD #561864) followed by flow cytometry analysis.
# as §3
# hCD34+ cells [4] = test: BlaM (BLAM) assay for assessment of viral entry; format: cell-based, human
# Description: Cells were transduced for 2 hours in the presence of F108, PGE2, and a virus encoding a β-lactamase-Vpr fusion protein. Following transduction, cells were washed and incubated with a fluorescent β-lactamase substrate for 30-60 minutes. β-lactamase cleavage was analyzed by flow cytometry: uncleaved substrate is GFP^+, and cleavage of the fluorescent β-lactamase results in a Pacific Blue^+ signal. β-lactamase cleavage indicates lentivirus entry into the cell. See also, Cavrois et al. Nature Biotechnology. 2002.
# Cells transduced for 2 hours were then subjected to staining and flow analysis for the BLAM assay to quantify viral entry. […]. FIGS. 1B and 1C.
# [5] = tested on: bulk hCD34+ cells and CD34+CD38LoCD90+CD45RA- phenotypic stem cells; test: Single-cell PCR assay of transduction efficiency in bulk and CD34+CD38LoCD90+CD45RA- cells; format: cell-based, human; settings: 400 nM or 800 nM staurosporine 2 hours
# Description: as §2
# Thawed hCD34+ cells were stained with antibodies against cell surface markers for phenotypic HSCs (CD34^+CD38^LoCD90^+CD45^RA− cells) and then sorted using a Sony Cell Sorter. […] After culture, the cells were then single-cell sorted into 96 well plates and analyzed via the single-cell PCR assay to assess transduction efficiency, the percent lentiviral vector positive cells. […]
# hCD34+ grafts = test: Non-restrictive insertion site analysis (polyclonality)
# Description: Identified insertion sites were mapped within gene regions to examine the lentiviral integration profile. […] Insertion sites were also quantified as the percent of total reads. The top 10 clones are shown for each treatment.
# Insertion sites were pooled for each group and quantified as the percent of total reads. The top 10 clones are shown for each treatment.
# [6] = tested on: transplanted hCD34+ cells; test: Engraftment and differentiation of transplanted hCD34+ cells in NSG mice (flow cytometry of BM); format: in vivo; settings: BM four months post-transplant
# Description: as §4
# Cells were stained with an antibody cocktail recognizing various cell surface markers (CD45, CD33, CD3, CD19) and analyzed via flow cytometry. […] FIG. 5B.
# hCD34+ cells [7] = test: Transgene (LNGFR) expression by flow cytometry; format: cell-based, human; settings: 200 nM staurosporine 2 hours, 24 hour transduction
# hCD34+ cells [8] = test: Methylcellulose assay for CFC formation (stem cell potential); format: cell-based, human
# Description: as §1
# For the 2 hour incubation, cells were subsequently washed and cultured in transduction media for the remaining 24 hours. Following the cultures, cells were plated in methylcellulose for CFC formation. […] FIG. 2B. […] FIG. 2A.
smiles,measurement,setting,value
"CCCCC[C@H](O)/C=C/[C@H]1[C@H](O)CC(=O)[C@@H]1C/C=C\CCCC(=O)O [PGE2, prostaglandin E2]","VCN compared to controls or other treatments, in words",hCD34+ cells [1],increased VCN compared to controls
"CN[C@@H]1C[C@H]2O[C@@](C)([C@@H]1OC)n1c3ccccc3c3c4c(c5c6ccccc6n2c5c31)C(=O)NC4 [staurosporine, Staurosporine]",fold increase in (mean) VCN versus control,"hCD34+ cells [2]; 200 nM staurosporine 2 hours, washed, 24 hour transduction",2 fold
same,"mean VCN of the drug product, in words",hCD34+ cells [2]; 400 nM staurosporine 2 hours,did not significantly improve the mean VCN
same,"mean VCN of the drug product, in words",hCD34+ cells [2]; 800 nM staurosporine,VCN enhancement
same,fold improvement in mean VCN of the drug product (pooled colonies) versus vehicle,hCD34+ cells [2]; 800 nM staurosporine 2 hours,approximately 2 fold
same,fold increase in average VCN,"hCD34+ cells [2]; 800 nM staurosporine 2 hours, high transducing cell lots (mean VCN>1)",1.2 fold
same,fold increase in average VCN,"hCD34+ cells [2]; 800 nM staurosporine 2 hours, low transducing cell lots (mean VCN <0.5)",2.3 fold
same,fold increase in average VCN,"hCD34+ cells [2]; 800 nM staurosporine 2 hours, medium transducing cell lots (0.5<VCN<1)",1.5 fold
same,effect of increasing staurosporine concentration on VCN enhancement,"hCD34+ cells [2]; 200, 400, 800 nM, high transducing cell lots",plateaus
same,effect of increasing staurosporine concentration on mean VCN,"hCD34+ cells [2]; 200, 400, 800 nM, low and medium transducing cell lots",trend for increasing mean VCN
same,fold improvement in mean in vivo VCN of BM relative to vehicle,[3]; 400 nM staurosporine prior to transduction,3 fold
same,fold improvement in mean in vivo VCN of BM relative to vehicle,[3]; 800 nM staurosporine prior to transduction,4 fold
same,increase in the amount of cells containing LVV compared to vehicle-treated controls,"hCD34+ cells [4]; 200 nM staurosporine 2 hours, washed, 2 hour transduction",~50%
same,"percentage of cells containing vector by BLAM assay, fold higher than controls","hCD34+ cells [4]; staurosporine-treated hCD34+ cells, two MOIs",1.5 fold
same,transduction efficiency (percent lentiviral vector positive cells) versus standard transduction,[5],increased transduction efficiency compared to standard transduction conditions; also recorded: higher than the transduction efficiency of the cells transduced using the standard transduction protocol
same,clonality of engrafted cells (insertion site profile),"hCD34+ grafts; BM four months post-transplant, top 10 clones",polyclonal insertion site profile similar to vehicle treated cells
same,lentiviral integration profile of transduced cells,"hCD34+ grafts; pre-transplant drug product, insertion sites mapped within gene regions",did not appear to skew
same,clonality of pre-transplantation samples,"hCD34+ grafts; pre-transplant drug product, top 10 clones as percent of total reads",polyclonality
same,effect of staurosporine treatment on engraftment,[6]; 400 nM or 800 nM,does not affect engraftment; also recorded: no statistically significant effect
same,proportion of myeloid (CD33+) or lymphoid (CD3+ or CD19+) cells / differentiation capabilities,[6]; 400 nM or 800 nM,is maintained; also recorded: no difference
same,level of engraftment of hCD34+ cells,"[6]; all groups (vehicle, 400 nM, 800 nM staurosporine)",30-40%
same,fold increase in transgene expression (LNGFR),hCD34+ cells [7],1.5 fold
same,"VCN compared to controls or other treatments, in words",hCD34+ cells [1],increased VCN compared to controls; also recorded: outperforms PGE2 addition
same,fold increase in VCN,hCD34+ cells [1]; staurosporine two hours before transduction,3 fold
same,colony formation ability,"hCD34+ cells [8]; 2 hour exposure, 200 nM, 400 nM or 800 nM",retain colony formation ability and do not significantly differ from control-treated cells; also recorded: did not affect the ability of the hCD34^+ cells to form colonies
same,colony-forming potential,"hCD34+ cells [8]; 24 hour exposure, 800 nM",few hCD34^+ cells that retain colony-forming potential
same,decrease in CFC formation,"hCD34+ cells [8]; 24 hour exposure, lower doses (200 nM, 400 nM)",> 50%
same,reduction in CFC formation,"hCD34+ cells [8]; 24 hours exposure, 3 different concentrations of staurosporine",> 50%
